Reference: PMC9653173, “Trotabresib (CC-90010) in combination with adjuvant temozolomide or concomitant temozolomide plus radiotherapy in patients with newly diagnosed glioblastoma” (Neuro-Oncology Advances, 2022)
Read-outs that look alike come from different tables or passages of the source.

Legend:
[1] = system: HEXIM1 mRNA; test: Blood HEXIM1 mRNA pharmacodynamics; type: in vivo, human
Description: Plasma samples were collected during the first treatment cycle for investigation of trotabresib pharmacokinetics and pharmacodynamics. Plasma pharmacokinetic parameters assessed included peak plasma concentration (Cmax), time to peak plasma concentration (tmax), area under the plasma concentration–time curve (AUC), and terminal half-life (t½). Pharmacodynamic markers assessed included blood levels of CCR1 and HEXIM1 mRNA, which are established markers of BET inhibitor target engagement.[17],[22],[37],[38]

[2] = system: glioblastoma PDX models; test: Tumor growth inhibition in glioblastoma patient-derived xenograft models; type: in vivo; settings: Supplementary Figure S1
Excerpt: Supplementary Figure 1. Trotabresib-mediated tumor growth inhibition in a glioblastoma patient-derived xenograft with and without TMZ. [picture] ^aTMZ given on days 7–9 and 22–24.

[3] = parameters: method as in PMID 36455228; settings: recurrent high-grade glioma, trotabresib 30 mg/day on days 1–4 before surgery; cited from earlier work
[4] = Trotabresib plasma pharmacokinetics, CC-90010-GBM-002; type: in vivo, human; settings: for Cmax: read-out: Cmax, GM (GCV%)
Description: The sample size was not based on strict statistical power calculations. Safety, efficacy, and pharmacodynamic analyses were summarized using descriptive statistics. Plasma pharmacokinetic parameters were calculated by the noncompartmental analysis method from plasma concentration–time profiles.

[5] = system: MGMT; test: In vivo downregulation of MGMT; settings: preclinical; Supplementary Figure S2
Excerpt: Supplementary Figure 2. In vivo downregulation of MGMT (A) mRNA by trotabresib as a single agent and (B) protein by trotabresib in combination with TMZ.

SMILES: Cn1cc(-c2cc(S(C)(=O)=O)ccc2OCC2CC2)c2ccccc2c1=O [Trotabresib]
- Duration of HEXIM1 mRNA elevation ([1]; RP2D 30 mg, cycle 1): remained above baseline until 168 h post-dose
- Increase in blood HEXIM1 mRNA expression ([1]; RP2D 30 mg, days 3 and 4, adjuvant and concomitant cohorts): 2.5- to 4.0 fold
- HEXIM1 modulation vs dose ([1]; both cohorts): increased with trotabresib dose
- Effect on antiproliferative effects of TMZ ([2]; glioblastoma PDX models): enhances the antiproliferative effects of TMZ
- Antitumor activity as a single agent ([2]; glioblastoma models): has antitumor activity in glioblastoma models as a single agent
- Brain tumor tissue:plasma ratio [3]: 0.84
- Reduction in plasma trotabresib concentration ([4]; 168 hours post-dose): > 75%
- mean t½ ([4]; all cohorts, standard deviation ± 27.2): ~ 74 h
- Increase in exposure with dose ([4]; both treatment settings, 15-45 mg): proportional to dose
- Cmax ([4]; human, plasma, oral, adjuvant trotabresib 15 mg + TMZ, Day 1): 201 ng/mL
- Tmax ([4]; human, plasma, oral, adjuvant trotabresib 15 mg + TMZ, Day 1, read-out: tmax, median (range)): 1 h
- Cmax ([4]; human, plasma, oral, adjuvant trotabresib 15 mg + TMZ, Day 4): 433 ng/mL
- Tmax ([4]; human, plasma, oral, adjuvant trotabresib 15 mg + TMZ, Day 4, read-out: tmax, median (range)): 1.5 h
- Cmax ([4]; human, plasma, oral, adjuvant trotabresib 30 mg + TMZ, Day 1): 306 ng/mL
- Tmax ([4]; human, plasma, oral, adjuvant trotabresib 30 mg + TMZ, Day 1, read-out: tmax, median (range)): 2 h
- Cmax ([4]; human, plasma, oral, adjuvant trotabresib 30 mg + TMZ, Day 4): 822 ng/mL
- Tmax ([4]; human, plasma, oral, adjuvant trotabresib 30 mg + TMZ, Day 4, read-out: tmax, median (range)): 1.5 h
- Cmax ([4]; human, plasma, oral, adjuvant trotabresib 45 mg + TMZ, Day 1): 522 ng/mL
- Tmax ([4]; human, plasma, oral, adjuvant trotabresib 45 mg + TMZ, Day 1, read-out: tmax, median (range)): 2 h
- Cmax ([4]; human, plasma, oral, adjuvant trotabresib 45 mg + TMZ, Day 4): 1160 ng/mL
- Tmax ([4]; human, plasma, oral, adjuvant trotabresib 45 mg + TMZ, Day 4, read-out: tmax, median (range)): 1.5 h
- half-life ([4]; human, plasma, oral, all cohorts, standard deviation ± 27.2, read-out: mean t½ (converted)): 74.2 h
- Cmax ([4]; human, plasma, oral, concomitant trotabresib 15 mg + TMZ + RT, Day 1): 167 ng/mL
- Tmax ([4]; human, plasma, oral, concomitant trotabresib 15 mg + TMZ + RT, Day 1, read-out: tmax, median (range)): 2 h
- Cmax ([4]; human, plasma, oral, concomitant trotabresib 15 mg + TMZ + RT, Day 4): 383 ng/mL
- Tmax ([4]; human, plasma, oral, concomitant trotabresib 15 mg + TMZ + RT, Day 4, read-out: tmax, median (range)): 1.3 h
- Cmax ([4]; human, plasma, oral, concomitant trotabresib 30 mg + TMZ + RT, Day 1): 309 ng/mL
- Tmax ([4]; human, plasma, oral, concomitant trotabresib 30 mg + TMZ + RT, Day 1, read-out: tmax, median (range)): 2 h
- Cmax ([4]; human, plasma, oral, concomitant trotabresib 30 mg + TMZ + RT, Day 4): 874 ng/mL
- Tmax ([4]; human, plasma, oral, concomitant trotabresib 30 mg + TMZ + RT, Day 4, read-out: tmax, median (range)): 1.5 h
- Tmax ([4]; human, plasma, oral, day 4, all cohorts, read-out: tmax): 0.5 to 4 h
- MGMT expression [5]: downregulates MGMT expression in a dose-dependent manner
